Laboratory results from patent US7563592B2, “Alizarin-based chromogenic substrates, their uses and composition containing same” (Biomerieux, S.A., priority 1999, dated 2009).

Columns and labels:
[1] = tested on: β-galactosidase (EC 3.2.1.23 Sigma); test: Effect of pH on β-D-galactosidase detection, substrate 0.05 g/l in water (Example 4); format: biochemical
Method: To each of eighteen tubes containing 5 ml of osmotically purified water, the following were added Alizarin-2-β-D-galactoside (0.05 g/l) and 5 μl of β-galactosidase (EC 3.2.1.23 Sigma). Ammoniacal iron citrate (0.05 g/l) was added to half of these tubes. […] Finally, the pH of these tubes was adjusted to different values (2-3-4-5-6-7-8-9-10) at 24° C.

[2] = tested on: Serratia odorifera; test: β-galactosidase detection on semi-solid medium, clinical and environmental strains (Example 2); format: cell-based; conditions: 50 mg/l + iron citrate 500 mg/l; 18 hours; 1 strain tested
[3] = tested on: Shigella sonnei; test: as above; format: cell-based; conditions: 50 mg/l + iron citrate 500 mg/l; 18 hours; 10 strains tested
[4] = tested on: Escherichia coli 115; test: β-galactosidase detection in semi-solid Columbia medium (Example 1); format: cell-based
[5] = tested on: 367 different strains collected from clinical and environmental specimens; test: β-galactosidase detection on semi-solid medium, all strains together (Example 2); format: cell-based; conditions: 18 hours at 37° C.
[6] = tested on: Shigella flexneri; test: β-galactosidase detection on semi-solid medium, clinical and environmental strains (Example 2); format: cell-based; conditions: 50 mg/l + iron citrate 500 mg/l; 18 hours; 2 strains tested
[7] = tested on: Proteus penneri; test: as above; format: cell-based; conditions: 50 mg/l + iron citrate 500 mg/l; 18 hours; 1 strain tested
[8] = tested on: Klebsiella pneumoniae; test: as above; format: cell-based; conditions: 50 mg/l + iron citrate 500 mg/l; 18 hours; 19 strains tested
[9] = tested on: Shigella dysenteriae; format: cell-based; conditions: 50 mg/l + iron citrate 500 mg/l; 18 hours; 2 strains tested
[10] = tested on: Listeria ivanovii 020; test: Effect of metal salts on the color of the marker part, substrate 50 mg/l in Columbia medium (Example 3); format: cell-based
Method: (§1) To the Columbia-base medium (46.37 g/l) supplemented with Alizarin-2-β-D-glucoside (50 mg/l), were added either Manganese chloride, Ammoniacal iron citrate, Tin chloride, or Aluminum sulfate, all at a concentration of 50 mg/l. A control medium with no metal salts was tested in parallel. After autoclaving, these various media were all used to prepare Petri dishes (20 ml per plate). […] It should be pointed out that intensity readings are in arbitrary units. The only purpose of giving these values is to make it possible to compare one strain with another in this respect. The same is true for the examples which follow. Similarly, the strains tested were taken from the Applicant's collection and the number given represents an internal reference specific to this collection. The same internal numbering system is also used in some of the examples given later on.

[11] = tested on: Listeria innocua 029; test: as above; format: cell-based
Method: as §1

[12] = tested on: Klebsiella pneumoniae 023; test: β-glucosidase detection in API strip wells (Example 6); conditions: 0.12 g/l + iron citrate 0.05 g/l
[13] = tested on: Listeria monocytogenes 022; test: as above; conditions: 0.12 g/l + iron citrate 0.05 g/l
[14] = Manganese chloride 50 mg/l, 24 H
[15] = Manganese chloride 50 mg/l, 48 H

## O=C1c2ccccc2C(=O)c2c1ccc(O[C@@H]1O[C@H](CO)[C@H](O)[C@H](O)[C@H]1O)c2O [Alizarin-2-β-D-galactoside]
[1]; 4 hours at 37° C., no Ammoniacal iron citrate
  color of the tubes after incubation, before pH adjustment: light pink
[1]; 4 hours at 37° C., with Ammoniacal iron citrate 0.05 g/l, versus tubes without
  pink coloration of the tubes after incubation, before pH adjustment: more intense
[1]; pH 2, no iron
  Color: Yellow
[1]; pH 2, with iron (Ammoniacal iron citrate 0.05 g/l)
  Color: Yellow
[1]; pH 3, no iron
  Color: Yellow
[1]; pH 3, with iron (Ammoniacal iron citrate 0.05 g/l)
  Color: Yellow
[1]; pH 4, no iron
  Color: Yellow
[1]; pH 4, with iron (Ammoniacal iron citrate 0.05 g/l)
  Color: Yellow
[1]; pH 5, no iron
  Color: Yellow-Orange
[1]; pH 5, with iron (Ammoniacal iron citrate 0.05 g/l)
  Color: Yellow-Pink
[1]; pH 6, no iron
  Color: Pink-Orange
[1]; pH 6, with iron (Ammoniacal iron citrate 0.05 g/l)
  Color: Pink
[1]; pH 7, no iron
  Color: Pink-Orange
[1]; pH 7, with iron (Ammoniacal iron citrate 0.05 g/l)
  Color: Pink
[1]; pH 8, no iron
  Color: Pink
[1]; pH 8, with iron (Ammoniacal iron citrate 0.05 g/l)
  Color: Purple
[1]; pH 9, no iron
  Color: Purple
[1]; pH 9, with iron (Ammoniacal iron citrate 0.05 g/l)
  Color: Purple
[1]; pH 10, no iron
  Color: Mauve
[1]; pH 10, with iron (Ammoniacal iron citrate 0.05 g/l)
  Color: Mauve
[2]
  percentage of positive strains: 100%
[3]
  percentage of positive strains: 100%
[4]; 0.01 g/l + iron citrate, 18 H
  Color: purple
  Intensity: 0.3
[4]; 0.01 g/l + iron citrate, 24 H
  Color: purple
  Intensity: 0.3
[4]; 0.01 g/l + iron citrate, 48 H
  Color: purple
  Intensity: 0.5
[4]; 0.03 g/l + iron citrate, 18 H
  Color: purple
  Intensity: 2.7
[4]; 0.03 g/l + iron citrate, 24 H
  Color: purple
  Intensity: 2.7
[4]; 0.03 g/l + iron citrate, 48 H
  Color: purple
  Intensity: 3
[4]; 0.05 g/l + iron citrate, 18 H
  Color: purple
  Intensity: 3.5
[4]; 0.05 g/l + iron citrate, 24 H
  Color: purple
  Intensity: 3.5
[4]; 0.05 g/l + iron citrate, 48 H
  Color: purple
  Intensity: 3.5
[4]; 0.08 g/l + iron citrate, 18 H
  Color: purple
  Intensity: 4
[4]; 0.08 g/l + iron citrate, 24 H
  Color: purple
  Intensity: 4
[4]; 0.08 g/l + iron citrate, 48 H
  Color: purple
  Intensity: 4
[5]; 50 mg/l + iron citrate 500 mg/l
  color of colonies expressing β-galactosidase activity: purple
[5]; of 367 strains
  strains that selectively hydrolyzed this substrate (not the reference substrate): Eight
[6]
  percentage of positive strains: 0%
[7]
  percentage of positive strains: 0%
[8]
  percentage of positive strains: 100%
[9]
  percentage of positive strains: 0%

## O=C1c2ccccc2C(=O)c2c1ccc(O[C@@H]1O[C@H](CO)[C@@H](O)[C@H](O)[C@H]1O)c2O [Alizarin-2-β-D-glucoside]
[10]; Aluminum sulfate 50 mg/l, 24 H
  Color: red
  Intensity: 4 arbitrary units
[10]; Aluminum sulfate 50 mg/l, 48 H
  Color: red
  Intensity: 4 arbitrary units
[10]; Control, no metal salt, 24 H
  Color: purple
  Intensity: 2.3 arbitrary units
[10]; Control, no metal salt, 48 H
  Color: purple
  Intensity: 2.3 arbitrary units
[10]; Iron citrate 50 mg/l, 24 H
  Color: purple
  Intensity: 4 arbitrary units
[10]; Iron citrate 50 mg/l, 48 H
  Color: purple
  Intensity: 4 arbitrary units
[10]; [14]
  Color: purple
  Intensity: 2.7 arbitrary units
[10]; [15]
  Color: purple
  Intensity: 2.7 arbitrary units
[10]; Tin chloride 50 mg/l, 24 H
  Color: orange
  Intensity: 3 arbitrary units
[10]; Tin chloride 50 mg/l, 48 H
  Color: orange
  Intensity: 4 arbitrary units
[11]; Aluminum sulfate 50 mg/l, 24 H
  Color: red
  Intensity: 4 arbitrary units
[11]; Aluminum sulfate 50 mg/l, 48 H
  Color: red
  Intensity: 4 arbitrary units
[11]; Control, no metal salt, 24 H
  Color: purple
  Intensity: 2 arbitrary units
[11]; Control, no metal salt, 48 H
  Color: purple
  Intensity: 2.3 arbitrary units
[11]; Iron citrate 50 mg/l, 24 H
  Color: purple
  Intensity: 4 arbitrary units
[11]; Iron citrate 50 mg/l, 48 H
  Color: purple
  Intensity: 4 arbitrary units
[11]; [14]
  Color: purple
  Intensity: 2.3 arbitrary units
[11]; [15]
  Color: purple
  Intensity: 2.3 arbitrary units
[11]; Tin chloride 50 mg/l, 24 H
  Color: orange
  Intensity: 3 arbitrary units
[11]; Tin chloride 50 mg/l, 48 H
  Color: orange
  Intensity: 4 arbitrary units
[12]; 4 H
  Color observed: Purple
[12]; 24 H
  Color observed: Purple
[13]; 4 H
  Color observed: Purple
[13]; 24 H
  Color observed: Purple
